{"source": "patent US6890727B2", "about": "“Diagnostic assay for Alzheimer's disease: assessment of Aβ abnormalities” (The General Hospital Corporation, priority 1994, dated 2005)", "key": {"[1]": {"assay": "65Zn2+ binding to immobilized peptide (dot-blot, Scatchard competition analysis)", "details": "for zinc binding (in words): dot-blot or blot of tryptic digest probed with ^65Zn^2+", "procedure": "^65Zn^2+ Binding Studies—Dissolved peptides (1.2 nMol, unless other wise stated) were dot-blotted onto polyvinylidene difluoride membrane (0.2-μm pore size; Pierce Chemical Co.), washed twice with chelating buffer (200 μl×100 mM NaCl, 20 mM Tris-HCl, 1 mM EDTA, pH 7.4), then five times with blocking buffer (200 μl×100 mM NaCl, 20 mM Tris-HCl, 1 mM MnCl2, pH 7.4), and then incubated (60 min, 20° C.) with ^65Zn (unless otherwise stated 130,000 cpm, […] ^65ZnCl2 in 200 μl of blocking buffer±competing metal ion chloride). The dot-blot was then washed with blocking buffer (5×200 μl), the dot excised, placed in a test tube, and assayed by γ-counting (11% efficiency). The equilibration volume for stoichiometry estimates was regarded as 6×200 μl. The 214 nm UV absorbance of the unbound flow-through was assayed to determine the total amount of peptide remaining bound onto the membrane. […] To alter the pH, the ^65Zn incubation was carried out in the presence of 100 mM buffer: MOPS (pH 6.5-7.0), MES (pH 5.0-6.0), acetate (pH 3.5-4.5). The dot-blot apparatus was washed with detergent and EDTA (50 mM) then rinsed and siliconized between use.\nAliquots of Aβ were incubated (60 min) with ^65Zn^2+ in the presence of varying concentrations of unlabeled Zn^2+ (0.01-50 μM total). Values shown are means±S.D., n≧3. […] (FIG. 1b) depicts specificity of the Zn^2+ binding site for various metals. Aβ was incubated (60 min) with ^65 Zn^2+ (157 nM, 138,000 cpm) and competing unlabeled metal ions (50 μM total). […] Percent binding of total counts ^65Zn^2+/min added is corrected for the amounts (in nanomoles) of peptides adhering to the membrane. […] 157 nM ^65Zn (138,000 cpm) is used in this experiment to probe immobilized peptide (1.6 nmol)."}, "Aβ": {"molecular_target": "T1, Aβ (Homo sapiens, UniProt P05067)", "T1 construct": "purchased Sigma; Bachem (results also replicated with peptide from the Keck Laboratory, Yale); host or cells: chemical synthesis", "T1 sequence (P05067 672-711)": "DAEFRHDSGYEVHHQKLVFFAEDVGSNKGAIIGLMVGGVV", "assay": "G50 gel filtration chromatography of Aβ in presence of metal ions or EDTA", "details": "metal ion 25 μM", "procedure": "Aβ was stored in aliquots of 0.52 mg/ml in water at −20° C., then kept at 4° C. when thawed. Reagents were mixed without vortex mixing. The incubated Aβ was directly applied to a G50 SF (Pharmacia, Uppsala, Sweden) column (Bio-Rad Econo-Column, 30×0.7 cm) pre-equilibrated with metal salt solution or EDTA (50 μM) in TBS at 20° C. and eluted at 8 ml/h (Wiz peristaltic pump, Isco, Lincoln, Nebr.). Absorbance was measured at 254 and 214 nm (Type 6 optical unit, Isco). The amount of Aβ eluting at various peaks was estimated from the area under the curve. […] Because the sample eluted in a volume of approximately 15 ml, the average concentration of the peptide on the column was 0.8 μM.\nTo study the effects of protein blocking upon adsorption of β to the chromatography column, a Sephadex G50 SF column which had been characterized previously for Aβ behavior was eluted with 3% bovine serum albumin (BSA) in TBS (50 ml) and equilibrated with non-BSA-containing buffer, subsequent to repeating the Aβ experiments.\nThe elution points of molecular mass standards and relative assignments of Aβ peak elutions are indicated. Mass standards were blue dextran (2×10^6 kDa, V0=void volume), BSA (66 kDa), carbonic anhydrase (29 kDa), cytochrome c (12.4 kDa), and aprotinin (6.5 kDa). The mass of Aβ is 4.3 kDa. […] Data for experiments performed in the presence of copper were taken from 214 nm readings and corrected for comparison."}, "[2]": {"assay": "65Zn2+ binding to immobilized peptide (dot-blot, Scatchard competition analysis)", "details": "74 nM ^65Zn^2+, corrected for peptide on membrane"}, "trypsin": {"test_system": "trypsin", "assay": "Tryptic digestion of Aβ after incubation with Zn2+", "assay_type": "biochemical", "details": "increasing zinc concentrations", "procedure": "Tryptic Digestion of Aβ-Aβ1-40 (13.9 μg) was incubated with Zn^2+ ([…] in blocking buffer, 1 h, 37° C.) and then digested with trypsin (12 ng, 3 h, 37° C.). The reaction was stopped by adding SDS sample buffer containing phenylmethylsulfonyl fluoride (1 mM), boiling the samples (5 min), and applying the samples to Tris/Tricine gel electrophoresis and transfer. The blot was washed with EDTA, Coomassie-stained, incubated with ^65Zn^2+, individual bands were excised, assayed for ^65Zn^2+ binding, and N-terminal sequenced to confirm the identity of the digestion products. The effects of Zn^2+ (up to 100 μM in TBS) on the activity of trypsin, itself, were assayed by assay of Z-Arg-amido-4-methylcoumarin (Sigma) fluorescent cleavage product and determined to be negligible.\n(FIG. 4a) depicts a blot of tryptic digests of Aβ (13.9 μg) after incubation with increasing concentrations of zinc (lane labels, in micromolar), stained by Coomassie Blue. […] The migration of the low molecular size markers (STD) are indicated (in kilodaltons) on the right. (FIG. 4b) depicts ^65Zn^2+ binding to Aβ tryptic digestion products. The blot in 4a was incubated with ^65Zn^2+, the visible bands excised, and the bound counts for each band determined."}, "[3]": {"assay": "not given", "remark": "listed apart in the source"}, "[4]": {"assay": "Zinc-induced tinctorial amyloid formation (Congo Red, polarized light)", "assay_type": "physicochemical", "details": "Congo Red", "procedure": "FIGS. 8a and 8b are photographs showing zinc-induced tinctorial amyloid formation. […] The particle diameter is 40μ. […] The experiment was repeated with EDTA (50 μM) substituted for Zn^2+ and yielded no visible material.\nThe particle diameter is 40μ. […] The experiment was repeated with EDTA (50 μM) substituted for Zn^2+ and yielded no visible material."}}, "note": "Read-outs that look alike come from different tables or passages of the source."}
{"compound": "25-35: Aβ fragment covering a region of the carboxyl terminus, residues 25-35 (GSNKGAIIGLM; Amyloid-beta protein 40; UniProt P05067 696-706, looked up, fragment)", "values": [{"measurement": "zinc binding (in words)", "setting": "[1]", "result": "unable to bind zinc"}]}
{"compound": "[Ag+2]", "note": "[Ag^2+]", "values": [{"measurement": "reduction in eluted peptide", "setting": "Aβ", "result": 60, "unit": "%"}]}
{"compound": "[Al+3]", "note": "[Al^3+]", "values": [{"measurement": "total Zn^2+ concentration with similar or comparable effect on Aβ chromatography", "setting": "Aβ", "result": "~3", "unit": "µM"}]}
{"compound": "[Ba+2]", "note": "[Ba^2+]", "values": [{"measurement": "reduction in eluted peptide", "setting": "Aβ", "result": 60, "unit": "%"}]}
{"compound": "[Ca+2]", "note": "[Ca^2+]", "values": [{"measurement": "reduction in eluted peptide", "setting": "Aβ", "result": 60, "unit": "%"}]}
{"compound": "[Co+2]", "note": "[Co^2+]", "values": [{"measurement": "total Zn^2+ concentration with similar or comparable effect on Aβ chromatography", "setting": "Aβ", "result": "~10", "unit": "µM"}]}
{"compound": "[Cu+2]", "note": "[Cu^2+, copper]", "values": [{"measurement": "effect on eluted Aβ species (monomer, dimer, polymer)", "setting": "Aβ", "result": "dramatic increase in Aβ dimerization"}]}
{"compound": "[Fe+2]", "note": "[Fe^2+]", "values": [{"measurement": "total Zn^2+ concentration with similar or comparable effect on Aβ chromatography", "setting": "Aβ", "result": "~10", "unit": "µM"}]}
{"compound": "[Mg+2]", "note": "[Mg^2+]", "values": [{"measurement": "reduction in eluted peptide", "setting": "Aβ", "result": 60, "unit": "%"}]}
{"compound": "[Ni+2]", "note": "[Ni^2+]", "values": [{"measurement": "total Zn^2+ concentration with similar or comparable effect on Aβ chromatography", "setting": "Aβ", "result": "~10", "unit": "µM"}]}
{"compound": "[Pb+2]", "note": "[Pb^2+]", "values": [{"measurement": "effect on eluted Aβ species (monomer, dimer, polymer)", "setting": "Aβ", "result": "most strongly promotes the elution of the monomeric peptide, abolishing high order polymers"}, {"measurement": "total Zn^2+ concentration with similar or comparable effect on Aβ chromatography", "setting": "Aβ", "result": "~0.4", "unit": "µM"}]}
{"compound": "NC(CO)(CO)CO", "note": "[Tris]", "values": [{"measurement": "abolition of ^65Zn^2+ binding to Aβ", "setting": "[1]; Tris 150 mM", "result": "≈ 50%"}, {"measurement": "abolition of ^65Zn^2+ binding to Aβ", "setting": "[1]; Tris 500 mM", "result": "≈ 95%"}]}
{"compound": "Aβ1-28: fragment of Aβ, residues 1-28", "values": [{"measurement": "zinc binding (in words)", "setting": "[1]", "result": "clearly binds zinc"}, {"measurement": "^65Zn^2+ binding compared with Aβ1-40", "setting": "[2]", "result": "30 % of Bmax"}]}
{"compound": "Aβ6-40: 3.6 kDa tryptic digestion product of Aβ1-40", "values": [{"measurement": "effect of zinc on rate of tryptic digestion of the peptide", "setting": "trypsin", "result": "is inhibited by the presence of zinc"}, {"measurement": "zinc binding (in words)", "setting": "[1]", "result": "binds zinc"}]}
{"compound": "Aβ17-40: 2.1 kDa tryptic digestion product of Aβ1-40, equivalent to post-secretase carboxyl-terminal product (LVFFAEDVGSNKGAIIGLMVGGVV; Amyloid-beta protein 40; UniProt P05067 688-711, looked up, fragment)", "values": [{"measurement": "effect of zinc on rate of tryptic digestion of the peptide", "setting": "trypsin", "result": "is not inhibited by increasing zinc concentrations"}, {"measurement": "zinc binding (in words)", "setting": "[1]", "result": "does not bind zinc"}]}
{"compound": "gln11: Aβ1-28 where residue 11 is glutamine (DAEFRHDSGYQVHHQKLVFFAEDVGSNK; Amyloid-beta protein 40; UniProt P05067 672-699, looked up, variant E11Q)", "values": [{"measurement": "zinc binding (in words)", "setting": "[1]", "result": "does not interfere with ^65Zn^2+ binding"}]}
{"compound": "rat Aβ1-40: rat/mouse species of Aβ1-40; Arg→Gly, Tyr→Phe, His→Arg at positions 5, 10 and 13 (DAEFGHDSGFEVRHQKLVFFAEDVGSNKGAIIGLMVGGVV; Amyloid-beta protein 40; UniProt P08592 672-711, looked up)", "values": [{"measurement": "proportion of particles >0.1μ", "setting": "EDTA, peptide 1.6 μM", "result": 36, "unit": "%"}, {"measurement": "proportion of particles >0.22μ", "setting": "EDTA, peptide 1.6 μM", "result": 27, "unit": "%"}, {"measurement": "proportion of particles >0.65μ", "setting": "EDTA, peptide 1.6 μM", "result": 25, "unit": "%"}, {"measurement": "increase of proportion of >0.1μ particles following incubation with Zn^2+", "setting": "Zn^2+ 25 μM vs EDTA", "result": 20, "unit": "%"}, {"measurement": "increase of proportion of >0.22μ particles following incubation with Zn^2+", "setting": "Zn^2+ 25 μM vs EDTA", "result": 30, "unit": "%"}, {"measurement": "proportion of particles >0.65μ", "setting": "Zn^2+ 25 μM, peptide 1.6 μM", "result": "increased only slightly"}, {"measurement": "peptide aggregated into >0.2μ particles", "setting": "[3]; EDTA, higher peptide concentrations", "result": "≈ 15%"}, {"measurement": "peptide aggregated into >0.2μ particles", "setting": "[3]; EDTA, peptide 0.8 μM", "result": "no detectable aggregation"}, {"measurement": "peptide aggregated into >0.2μ particles", "setting": "[3]; Zn^2+ 25 μM, peptide 0.8 μM", "result": "no aggregation"}, {"measurement": "peptide aggregated into >0.2μ particles", "setting": "[3]; Zn^2+ 25 μM, peptide 4 μM", "result": 25, "unit": "%"}, {"measurement": "zinc concentration at which aggregation was observed", "setting": "[3]; peptide 1.6 μM", "result": 25, "unit": "µM"}, {"measurement": "zinc concentration up to which the peptide remains stable", "setting": "[3]; peptide 1.6 μM", "result": "up to 10 μM"}, {"measurement": "Zn^2+ concentration inducing amyloid by tinctorial criteria", "setting": "[4]", "result": "≥ 10", "unit": "µM"}]}
